# Assay results reported in patent US20240278234A1, “SAMPLE PREPARATION” (priority 2021, published 2024).
# System: SARS-CoV-2 target genes E gene, RdRP gene and human RP (positive control)
# Assay: RT-qPCR amplification (YouSeq E-RdRP kit) in the presence of lysis agents: test for PCR inhibition
# Format: biochemical
# Details: for qPCR amplification curves, FIG. 4: 2%-0.2% agent; for qPCR amplification curves, FIG. 5: 0.2% and 0.06% agent; for inhibition of amplification (summary of FIGS. 4 and 5): agents tested at 2%, 0.6%, 0.2% and 0.02%, 45 cycles
# Method: An E-RdRP kit from YouSeq was used, which is designed to detect SARS-CoV-2, and includes a positive control containing the SARS-CoV-2 target genes E gene, RdRP gene and human RP (as an internal control). Each reaction included: • 10 μL MasterMix • 1 μL Primer/Probe • 3 μL Water • 1 μL Template or Water • 5 μL Buffers
# PCR was carried out under the following conditions: • 55 C for 10 mins RT Step • 95 C for 3 mins denaturation • x45 Cycles • 95 C for 15 secs • 60 C for 60 secs
# Amplification was monitored using a Quantstudio Q5.
Compound,"qPCR amplification curves, FIG. 4","qPCR amplification curves, FIG. 5",inhibition of amplification (summary of FIGS. 4 and 5)
[H]/N=C(\N/C(=N/[H])NCCCCCCNC(=N)NC(=N)Nc1ccc(Cl)cc1)Nc1ccc(Cl)cc1 [chlorhexidine],Clear PCR inhibitions,no significant inhibition,inhibit at higher concentrations
CC(C)=CCCC(C)=CC=O [citral],clear inhibitory effect between 2%-0.2%,no significant inhibition,inhibit at higher concentrations
